The values below come from ChEMBL document CHEMBL3875198, “Synthesis and biological properties of galactofuranosyl-containing fluorescent dyes” (Bioorg Med Chem Lett, 2017).

A short description of series [1]: Cellular uptake in human macrophages infected with amastigote form of Leishmania donovani MHOM/SD/LEM3427 at 80 uM measured after 6 hrs by Hoechst-33342 staining based epifluorescence microscopy. Conditions: macrophage. It is filed as ADME, cell-based.
The nature of series [2]: Drug uptake in human macrophage cytoplasm infected with amastigote form of Leishmania donovani MHOM/SD/LEM3427 at 80 uM measured after 6 to 18 hrs by Hoechst-33342 staining based epifluorescence microscopy. It is filed as ADME.
Series [3] deals with Leishmania donovani. Nature of the series: Antileishmanial activity against amastigote form of Leishmania donovani MHOM/SD/LEM3427 infected in human macrophages assessed as reduction in macrophage infection at 80 uM measured after 48 hrs. It is filed as functional.
The test system of series [4] is Leishmania donovani. Description: Antileishmanial activity against amastigote form of Leishmania donovani MHOM/SD/LEM3427 infected in human macrophages assessed as reduction in amastigote multiplication at 80 uM measured after 48 hrs. It is filed as functional.
Series [5] deals with Leishmania donovani. Nature of the series: Antileishmanial activity against amastigote form of Leishmania donovani MHOM/SD/LEM3427 infected in human macrophages assessed as phenotypic surface alterations by MGG-staining based analysis. It is filed as functional.

Calls of active or inactive are those of the source. The rule behind the calls is not given here.

Turning to `CC/N=c1/cc2oc3cc(NCC)c(C)cc3c(-c3ccccc3C(=O)NCCCCCCO[C@@H]3O[C@@H]([C@H](O)CO)[C@H](O)[C@H]3O)c-2cc1C.Cl`, the Drug uptake result in series [1] and in series [2] was “Active” in each case. Moreover, the result in the series with Leishmania donovani [3] and with Leishmania donovani [4] was Active.
Turning to `CC/N=c1\cc2oc3cc(NCC)c(C)cc3c(-c3ccccc3C(=O)OCC)c-2cc1C.Cl` [RHODAMINE 6G HYDROCHLORIDE], the Drug uptake result in series [1] and in series [2] was “Active” in each case. The outcome in the series on Leishmania donovani [5] was Active.
With `O=C(O)c1cc(NC(=S)NCCCCCCO[C@@H]2O[C@@H]([C@H](O)CO)[C@H](O)[C@H]2O)ccc1-c1c2ccc(=O)cc-2oc2cc(O)ccc12`, the Drug uptake result in series [1] and in series [2] was “Active” each time.
